Laboratory results taken from publication PMC2409523, “Hormonal impact of the 17α-hydroxylase/C17,20-lyase inhibitor abiraterone acetate (CB7630) in patients with prostate cancer” (British Journal of Cancer, 2004).
pKi: −log10 of the molar value. “And” between values parts separate entries of the source, which are not always exact repeats. Identical values can stand only once.

Legend:
[1] = target: 17α-hydroxylase/C17,20-lyase; design: method as in Barrie et al, 1997; Potter et al, 1995; conditions: inhibition of the 17α-hydroxylase/C17,20-lyase enzyme; ref Barrie et al, 1997; Potter et al, 1995; read-out: Kiapp; cited from earlier work
testosterone synthesis [2] = experiment: Study A: single dose study in castrate males with prostate cancer, serum hormone levels; assay type: in vivo, human
Description: Significant suppression was defined as either testosterone <0.14 nmol l^−1 in individual patients with a pretreatment value of <0.6 nmol l^−1 or a ⩾75% reduction in individual patients with a pretreatment value of ⩾0.6 nmol l^−1.
This was a single-centre, open-label, phase one, single-dose study in which sequential cohorts of three medically or surgically castrate patients were to receive treatment at five dose levels: starting at 10 mg and increasing to 30, 100, 200 and 500 mg. […] A confirmatory testosterone level of between 0.2 and 2.0 nmol l^−1 was also required.
(§1) Serum samples for endocrine analysis were obtained at 0, 2, 4, 8 and 24 h on a single day in the week prior to treatment commencement and then on Days 1, 2, 3, 4 and 7. As the duration of testosterone suppression was longer than originally anticipated, additional samples were added on Days 10, 14 and 21. The serum samples were analysed for testosterone, cortisol, 17 α-hydroxyprogesterone (17HP), androstenedione, LH and follicle-stimulating hormone (FSH) using commercially available kits. However, the DPC Coat-a-count kit for testosterone was sensitised using a larger volume of sample/standard and extension of the standard curve. […] All endocrine analyses were conducted by radioimmunoassay except for LH and FSH, which were by enzyme immunoassay.

[3] = Pharmacokinetics in patient plasma (LC-MS); assay type: in vivo, human; conditions: for Mean AUC: across all three studies
Description: Sample extracts were analysed by a fully validated liquid chromatography mass spectrometry method. The instrument consisted of Wisp Model 717 autosampler including a Model 600MS system controller with a quaternary U6K LC pump. A Finnigan MAT TSQ 700 triple quadrupole mass spectrometer was used as the detection system, together with Finnigan MAT ICIS and ICL software for data capture and processing (ThermoQuest Ltd, San Jose, CA, USA). The separation of analytes was performed on a Supelcosil LC-ABZ (5 μm, 250 × 4.6 mm) analytical column protected by a guard column (Supelco, Bellefonte, PA, USA). The mobile phase consisted of 570 ml of 20 mM ammonium acetate solution, 100 ml tetrahydrofuran and 1330 ml acetonitrile and was delivered at a flow rate of 1 ml min^−1 throughout the system. Column eluant was subjected to electrospray ionisation and monitored by selected ion monitoring (SIM) of protonated pseudo-molecular ions of authentic standards of abiraterone acetate and abiraterone, and GP488 (an analogue of abiraterone used as internal standard). For SIM, the scan width was 0.25 and the total scan time was 2.99 s. Also, heated capillary temperature=250°C, spray voltage=4.5 kV, collision offset=−49.9 V and electron multiplier voltage=1200 eV. Samples were extracted as follows: 50 μl of acetonitrile and 40 μl of 50 μM GP488 internal standard were added to 500 μl of patient plasma. […] The dried residue was reconstituted by vortexing in 150 μl of acetonitrile and transferred into autosampler vials. Aliquots (100 μl) of these samples were injected onto the LC column. […] A comprehensive PK profile (Cmax, Tmax, T1/2α T1/2 and Kabs) was determined for each patient. Pharmacokinetic parameters were evaluated using WinNonLin Software® and were conducted at The Institute of Cancer Research (Sutton). Blood was sampled for analysis of abiraterone concentration prior to drug administration and at the following times on Day 1: 30 min, 1, 2, 4, 6, 8 and 12 h. In the multidose study, samples were also drawn prior to treatment on Days 2, 3, 4, 7, 8, 9, 10, 11 and 14 with additional samples on Days 21 and 28. Samples (7 ml) were collected into vacutainer tubes (BD, Rutherford, NJ, USA) containing EDTA and immediately centrifuged to separate the plasma. At least 2 ml of plasma was transferred into polypropylene tubes (NUNC) and frozen at –20° until analysis.

testosterone synthesis [4] = experiment: Study B: single dose study in noncastrate males with prostate cancer, serum hormone levels; assay type: in vivo, human
Description: This was a single dose study in noncastrate males (testosterone level ⩾9.0 nmol l^−1) to determine the dose of abiraterone acetate that was sufficient to cause suppression of testosterone synthesis to castrate levels (⩽2.0 nmol l^−1).
This was a single-centre, open-label, phase one, single-dose study in which sequential cohorts of three noncastrate patients were to be treated at four dose levels: 200, 500, 650 and 800 mg. The starting dose of 200 mg was chosen when the results of study A were available.
All patients were required to have a normal testosterone level prior to study entry (i.e. ⩾9.0 nmol l^−1) as well as normal gonadotrophin levels (Luteinising Hormone (LH) ⩽13 IU l^−1).
as §1

testosterone synthesis [5] = experiment: Study C: multiple dose study (Days 1–12) in noncastrate males with prostate cancer, serum hormone levels; assay type: in vivo, human
Description: If this level of suppression was achieved, then it was planned to escalate the doses still higher to establish whether further suppression of testosterone was possible. […] This was a three-centre, open-label, phase one, multidose study in which sequential cohorts of three noncastrate patients were to receive treatment with abiraterone daily for 12 days. […] The starting dose of 500 mg was based upon the data from the single-dose studies. It was planned that a dose level would be expanded to six patients if any patient experienced toxicity ⩾ Grade III or if there was a significant suppression of serum cortisol in one patient (defined as per Study B above). All patients were followed for 28 days for any sign of toxicity. […] The schedule sampling differed slightly with samples removed at 0930 and 1730 on the day of treatment and thereafter in the morning on Days 2, 3, 4, 7, 8, 9, 10, 11, 14, 21 and 28. In Study C, a short […] test was also performed prior to therapy and again around Day 11.

[6] = Safety and tolerability in the three phase one trials; assay type: in vivo, human
Description: Prior to the first dose of therapy a complete history, physical examination and assessment of performance status was performed on all patients. Full-blood count, electrolytes and creatinine, liver function, urinanalysis, electrocardiograph and chest X-ray were obtained from all patients. The ECG was repeated 6 h after dosing. On the day of therapy heart rate, blood pressure and temperature were recorded every 4 h and then daily at the time of blood sampling. Thereafter, full-blood count, electrolytes, creatinine and liver function were re-evaluated on Days 2 and 7. Toxicity was recorded using the NCI-CTG Expanded Common Toxicity Criteria V1.

17α hydroxylation = system: 17α hydroxylation; design: method as in Barrie et al, 1994; Dowsett et al, 1988; conditions: preclinical studies, correlative evidence of inhibition of 17α hydroxylation; ref Barrie et al, 1994; Dowsett et al, 1988; cited from earlier work
cortisol synthesis = experiment: Short Synacthen test in Study C; assay type: in vivo, human
Description: The schedule sampling differed slightly with samples removed at 0930 and 1730 on the day of treatment and thereafter in the morning on Days 2, 3, 4, 7, 8, 9, 10, 11, 14, 21 and 28. In Study C, a short Synacthen test was also performed prior to therapy and again around Day 11.

[7] = design: method as in Barrie et al, 1994; Dowsett et al, 1988; conditions: rodent model, intraperitoneal administration; ref Barrie et al, 1994; Dowsett et al, 1988; cited from earlier work
[8] = single oral dose 500 mg, noncastrate patients
[9] = 500 mg daily Days 1–12, noncastrate patients

In the case of `C[C@]12CC[C@H](O)CC1=CC[C@@H]1[C@@H]2CC[C@]2(C)C(c3cccnc3)=CC[C@@H]12` [abiraterone, 17-(3-pyridyl)androsta-5,16-dien-3β-ol], the pKi [1] is listed as 9.30, the serum cortisol level (testosterone synthesis [2]; one patient at 500 mg, Day 1, baseline 409 nmol l^−1, felt inconsistent with suppression due to drug) is listed as 81 nmol/L and the reduction in testosterone (testosterone synthesis [2]; single oral dose 200 mg, one castrate patient, within the first 24 h) is listed as 75%. For the same compound, the “levels of 17-hydroxyprogesterone” value (testosterone synthesis [2]; single oral dose 500 mg, castrate males) was “no corresponding reduction”, the mean androstenedione levels (testosterone synthesis [2]; single oral dose 500 mg, castrate males, around Day 2) was “reduction in mean androstenedione levels” and the “patients with reduction in testosterone to the target level” value (testosterone synthesis [2]; single oral dose 500 mg, first cohort of three castrate patients, target <0.14 nmol l^−1 or ⩾75% reduction) was “all three patients”. For the same compound, the “patients with target testosterone suppression” value (testosterone synthesis [2]; single oral dose 500 mg, three additional castrate patients) was “one of these patients”, the “days over which testosterone suppression was sustained” value (testosterone synthesis [2]; single oral dose 500 mg, two of the three castrate patients, post-therapy) was 2 to 5 days and the effect on testosterone (testosterone synthesis [2]; single oral dose 10, 30 and 100 mg, castrate males) was “no consistent effect”. For the same compound, the “plasma levels of abiraterone” value ([3]; all doses greater than or equal to 200 mg) was “Detectable levels”, the Mean AUC ([3]; dose 200 mg) was 0.31 µM·h and the Mean AUC ([3]; dose 500 mg) was 1.22 µM·h. The Mean AUC ([3]; dose 800 mg) was 5.6 µM·h, the testosterone suppression (testosterone synthesis [4]; single oral dose 200 mg, first noncastrate patient) was “No testosterone suppression” and the “reduction in testosterone level from baseline” value (testosterone synthesis [4]; single oral dose 500 mg, all three noncastrate patients) was “more than 50%”. For the same compound, the “recovery of LH to pretreatment levels” value (testosterone synthesis [4]; [8]) was at most 10 days, the “recovery of testosterone to pretreatment levels after nadir” value (testosterone synthesis [4]; [8]) was 6 to 9 days and the “time of testosterone nadir” value (testosterone synthesis [4]; [8]) was “second day after therapy”. For the same compound, the “rise in LH levels” value (testosterone synthesis [4]; single oral dose 500 mg, noncastrate patients, maximal on Day 3) was 47–75%.

For `CC(=O)O[C@H]1CC[C@@]2(C)C(=CC[C@@H]3[C@@H]2CC[C@]2(C)C(c4cccnc4)=CC[C@@H]32)C1` [abiraterone acetate], the testosterone level reached (testosterone synthesis [5]; 500 mg daily Days 1–12, all three noncastrate patients) was at most 2.0 nmol/L, the “duration of substantial testosterone suppression” value (testosterone synthesis [5]; [9]) was “up to 9 days” and the serum cortisol levels (testosterone synthesis [5]; [9]) was “remained within normal limits”. For the same compound, the “time of maximal testosterone suppression” value (testosterone synthesis [5]; [9]) was 1 to 3 days, the “target testosterone level of ⩽0.7 nmol l^−1” value (testosterone synthesis [5]; 500 mg daily Days 1–12, three noncastrate patients) was “did not reach the target level” and the “day on which target testosterone suppression (⩽0.7 nmol l^−1) was obtained” value (testosterone synthesis [5]; 800 mg daily Days 1–12, first patient) was 1 days. The testosterone level (testosterone synthesis [5]; 800 mg daily, final patient, by Day 2) was 1.7 nmol/L, the “rise in LH” value (testosterone synthesis [5]; 800 mg daily, final patient, from Day 3) was “two-fold rise” and the testosterone level (testosterone synthesis [5]; 800 mg daily, final patient, from Day 4) was over 2.0 nmol/L. For the same compound, the “testosterone levels for the duration of treatment” value (testosterone synthesis [5]; 800 mg daily, first patient) was at most 2.0 nmol/L, the “increase in LH” value (testosterone synthesis [5]; 800 mg daily, first patient, from Day 3) was “three-fold increase” and the “duration of target testosterone suppression” value (testosterone synthesis [5]; 800 mg daily, first patient, then reversed with rising LH) was 3 days. The “day on which target testosterone suppression (⩽0.7 nmol l^−1) was reached” value (testosterone synthesis [5]; 800 mg daily, second patient) was 4 days, the testosterone level (testosterone synthesis [5]; 800 mg daily, second patient, Day 7, otherwise below target level) was 0.77 nmol/L and the “increase of Luteinising Hormone (LH) levels” value (testosterone synthesis [5]; 800 mg days 1–12, two out of three patients, overcame suppression within 3 days) was “two- to three-fold”. For the same compound, the “effect on FSH levels” value (testosterone synthesis [5]; 800 mg, repeat dose) was “no effect”, the “fall of evening cortisol from baseline evening cortisol” value (testosterone synthesis [5]; multidose study, evening of Day 1, three patients) was 60% and 71% and 69% and the “dose required to maintain testosterone suppression to target levels” value (testosterone synthesis [5]; repeat dose studies, noncastrate males) was “at least 800 mg”. For the same compound, the “grade three or four toxic events” value ([6]; all three trials) was “no grade three or four toxic events”, the “resting heart rate or blood pressure” value ([6]; all three trials) was “No alteration” and the serious adverse events ([6]; all three trials) was “no serious adverse events attributable to treatment”. For the same compound, the tolerability ([6]; all three trials) was “very well tolerated”, the “haematologic or biochemical effects” value ([6]; any dose level or schedule evaluated) was “No haematologic or biochemical effects” and the “systemic effects reported by individual patients” value ([6]; no relation to dose or schedule apparent) was “Headache, hot flushes, a mild increase in abdominal and testicular pain, and a transient depression in mood (all grade II)”. For the same compound, the “patients with suppression of testosterone levels to <0.14 nmol l^−1” value (testosterone synthesis [2]; single dose of 500 mg, castrate males) was “four out of six”, the “saturation of drug absorption” value ([3]; at the dose levels studied, all three studies combined) was “no evidence of saturation of drug absorption” and the LH levels (testosterone synthesis [4]; single oral dose 200 mg, noncastrate) was “did not alter”. For the same compound, the “level of testosterone relative to baseline” value (testosterone synthesis [4]; single oral dose 500 mg, noncastrate patients, Day 3, each case) was “less than 50%”, the “change in cortisol level” value (testosterone synthesis [4]; single oral dose, noncastrate patients) was “No change” and the “weight of the ventral prostate” value (17α hydroxylation) was “reduced weight of the ventral prostate”. For the same compound, the “response to Synacthen” value (cortisol synthesis; 500 mg daily, all three patients, by Day 11) was “abnormal response”, the “mean change in cortisol in response to Synacthen” value (cortisol synthesis; 500 mg daily, by Day 11, baseline 294.3 nmol l^−1) was 42 nmol/L and the “mean change in cortisol in response to Synacthen (percent)” value (cortisol synthesis; 500 mg daily, by Day 11, baseline +77%) was “+10%”. The “cortisol response to the short Synacthen test” value (cortisol synthesis; 800 mg daily, all three patients, Day 11) was “abnormal”, the “mean change in cortisol levels in response to Synacthen” value (cortisol synthesis; 800 mg daily, by Day 11, baseline 385 nmol l^−1) was 65.3 nmol/L and the “mean change in cortisol levels in response to Synacthen (percent)” value (cortisol synthesis; 800 mg daily, by Day 11, baseline 120%) was 23%. For the same compound, the deacetylation [7] was “rapid deacetylation”.
